Reference: publication PMC10855879, “Formulation Studies with Cyclodextrins for Novel Selenium NSAID Derivatives” (International Journal of Molecular Sciences, 2024)
Converted amounts (≈) assume the structure as drawn. “Also recorded” adds a separate entry of the source. Like-named read-outs stand apart in the source and are kept apart here.

Key:
[1] = Water solubility by quantitative 1H-NMR in D2O, alone or with cyclodextrin; assay type: physicochemical; settings: for solubility: 25 °C, thermodynamic from solid, 298 K; for Improvement of water solubility after exposure to β- and γ-CD (in words): complexes versus compounds alone
Procedure: For all the Se-NSAID derivatives, the formation of inclusion complexes either with β- or γ-CDs was evaluated by quantitative proton nuclear magnetic resonance (^1H-NMR) spectroscopy (Figures S1–S40 in Supplementary Materials). The election for such CDs is based on the fact that β-CD is one of the most frequently used CDs for encapsulating NSAIDs. Additionally, given the size of the studied molecules, a larger CD such as γ-CDs was also evaluated.
The experimental formation of inclusion complexes with either β-CD or γ-CD was evaluated via quantitative ^1H-NMR spectroscopy. This method is based on the consideration that the integration for a given signal that is selected as a marker for a given compound is proportional to its concentration. Consequently, solutions of 0.5 mL in D2O (≥99.85% in deuterated component) with an excess of each compound were prepared, along with either 4 mg of dimethyl sulfone (as internal standard) or with the corresponding CD at 10 mM. ^1H-NMR spectra were recorded at 298 K on a Bruker Avance Neo at a proton resonance frequency of 400 MHz. The solubilities were calculated considering the ratio between the area of the peaks belonging to the internal standard or the CDs and the different hydrogens of the Se-NSAID derivatives.

colon cancer = tested on: colon cancer; design: method as in PMID 37759969; settings: in vitro and in vivo; cited from earlier work
[2] = water, D2O, compound alone, dimethyl sulfone internal standard, read-out: Water Solubility, Compound
[3] = D2O with β-cyclodextrin, aqueous with cosolvent or surfactant or cyclodextrin, D2O, β-CD 10 mM, read-out: Water Solubility, Compound + β-CD
[4] = D2O with γ-cyclodextrin, aqueous with cosolvent or surfactant or cyclodextrin, D2O, γ-CD 10 mM, read-out: Water Solubility, Compound + γ-CD

SMILES: CC(=O)Oc1ccccc1C(=O)[Se][Se]C(=O)c1ccccc1OC(C)=O [II.1]
- solubility [1, 2]: 8.43 µM (≈ 4.08 µg/mL)
- solubility [1, 3]: 101 µM
- solubility [1, 4]: 15.1 µM

SMILES: COc1ccc2c(c1)c(CC(=O)[Se][Se]C(=O)Cc1c(C)n(C(=O)c3ccc(Cl)cc3)c3ccc(OC)cc13)c(C)n2C(=O)c1ccc(Cl)cc1 [II.2]
- solubility [1, 2]: 0.132 µM (≈ 0.111 µg/mL)
- solubility [1, 3]: 7.96 µM
- solubility [1, 4]: 7.6 µM

SMILES: COc1ccc2c(c1)c(CC(=O)[Se]CCC#N)c(C)n2C(=O)c1ccc(Cl)cc1 [I.4e]
- solubility [1, 2]: 5.72 µM (≈ 2.71 µg/mL)
- solubility [1, 3]: 45.5 µM
- solubility [1, 4]: 42.1 µM

SMILES: CC(C(=O)[Se][Se]C(=O)C(C)c1cccc(C(=O)c2ccccc2)c1)c1cccc(C(=O)c2ccccc2)c1 (centres unmarked) [II.4]
- solubility [1, 2]: 5.57 µM (≈ 3.52 µg/mL)
- solubility [1, 3]: 27 µM
- solubility [1, 4]: 17.7 µM

SMILES: COc1ccc2c(c1)c(CC(=O)[Se]CC(=O)O)c(C)n2C(=O)c1ccc(Cl)cc1 [I.4a]
- solubility [1, 2]: 22.4 µM (≈ 10.7 µg/mL)
- solubility [1, 3]: 56.5 µM
- solubility [1, 4]: 52.4 µM

SMILES: COc1ccc2cc(C(C)C(=O)[Se]CCC#N)ccc2c1 (centres unmarked) [I.3e]
- solubility [1, 2]: 9.7 µM (≈ 3.36 µg/mL)
- solubility [1, 3]: 992 µM
- solubility [1, 4]: 273 µM
- Improvement of water solubility after exposure to β- and γ-CD (in words) [1]: remarkable improvement; also recorded: remarkable increase; also recorded: almost two orders of magnitude

SMILES: COc1ccc2c(c1)c(CC(=O)[Se]CC#N)c(C)n2C(=O)c1ccc(Cl)cc1 [I.4d]
- solubility [1, 2]: 20 µM (≈ 9.2 µg/mL)
- solubility [1, 3]: 45.3 µM
- solubility [1, 4]: 33.7 µM

SMILES: COc1ccc2cc([C@H](C)C(=O)[Se][Se]C(=O)[C@@H](C)c3ccc4cc(OC)ccc4c3)ccc2c1 [II.3]
- solubility [1, 2]: 0.605 µM (≈ 0.354 µg/mL)
- solubility [1, 3]: 0.219 µM
- solubility [1, 4]: 6.14 µM

SMILES: CC(C)Cc1ccc(C(C)C(=O)[Se][Se]C(=O)C(C)c2ccc(CC(C)C)cc2)cc1 (centres unmarked) [II.5]
- solubility [1, 2]: 21.2 µM (≈ 11.4 µg/mL)
- solubility [1, 3]: 5420 µM
- solubility [1, 4]: 7500 µM
- Improvement of water solubility after exposure to β- and γ-CD (in words) [1]: remarkable improvement; also recorded: remarkable increase; also recorded: almost two orders of magnitude
- Increase in water solubility with β-CD ([1]; versus compound alone, D2O): up to 250 fold
- Increase in water solubility with γ-CD ([1]; versus compound alone, D2O): ≤ 350 fold
- Anticancer properties (in words) (colon cancer): potent anticancer properties

SMILES: COC(=O)C[Se]C(=O)Cc1c(C)n(C(=O)c2ccc(Cl)cc2)c2ccc(OC)cc12 [I.4b]
- solubility [1, 2]: 12 µM (≈ 5.91 µg/mL)
- solubility [1, 3]: 157 µM
- solubility [1, 4]: 43.9 µM
